Data on 16 molecules can be found in patent publication US8222244B2, “Staurosporine derivatives as inhibitors of FLT3 receptor tyrosine kinase activity” (Novartis AG, priority 2001, dated 2012).

This test addresses T1, human Flt-3 (Homo sapiens, UniProt P36888).
T1 construct: expresses the amino acid region amino acids 563-993 of the intra-cytoplasmic kinase domains of human Flt-3; made in house; host or cells: Sf9 insect cells (baculovirus, pFbacG01 donor vector)
T1 sequence (P36888 563-993): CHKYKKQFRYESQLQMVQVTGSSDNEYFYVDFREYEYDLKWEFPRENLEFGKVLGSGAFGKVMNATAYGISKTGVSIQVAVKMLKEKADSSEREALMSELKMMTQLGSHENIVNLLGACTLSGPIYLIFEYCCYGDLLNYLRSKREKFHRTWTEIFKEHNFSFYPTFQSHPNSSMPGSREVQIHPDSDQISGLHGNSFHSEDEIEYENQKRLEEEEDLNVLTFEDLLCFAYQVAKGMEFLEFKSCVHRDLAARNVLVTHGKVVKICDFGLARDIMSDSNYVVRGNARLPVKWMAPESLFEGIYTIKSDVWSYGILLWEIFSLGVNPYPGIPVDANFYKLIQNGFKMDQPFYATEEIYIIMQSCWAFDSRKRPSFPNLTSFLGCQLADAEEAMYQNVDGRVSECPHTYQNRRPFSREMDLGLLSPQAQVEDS
Briefly: Tyrosine protein kinase assay with purified GST-Flt-3 (33P incorporation). It is filed as biochemical. The conditions noted are these: at a 1.0 micromolar concentration. The procedure: ATP into appropriate substrates.
The coding sequences for the cytoplasmic domain of Flt-3 was amplified by PCR from human c-DNA libraries (Clontech). The amplified DNA fragments and the pFbacG01 vector were made compatible for ligation by digestion with BamH1 and Hind III. […] The production of the viruses, the expression of proteins in Sf9 cells and the purification of the GST-fused proteins were performed as following:
(Generation of Bac- to Bac GST-fusion vectors); pFbacG01, pFbacGST2T and pFbacGSTx3 Bac-to-Bac™ donor vectors were generated from pAcG1, pAcG2T and pAcG3X respectively, which facilitate the expression of GST-fusion proteins with the possibility of cleavage with thrombin (pFbacGT2) or factor Xa (pFbacGSTx3) while pFbacG01 expresses no proteolytic cleavage site. These were generated in house by isolation of the DNA fragment containing the gene for GST with the C-terminal protease and restriction sites by restriction enzyme digestion of the relevant PharMingen baculovirus donor vector with EcoRV and EcoRI. This EcoRV/EcoRI fragment was ligated into the pFastBac1 vector which had been restriction digested with BamHI, blunt-ended by Klenow reaction and subsequently digested with EcoRI to generate a blunt-ended/EcoRI vector. (Production of virus); Transfer vectors containing the kinase domains were transfected into the DH10Bac cell line (GIBCO) and plated on selective agar plates. Colonies without insertion of the fusion sequence into the viral genome (carried by the bacteria) are blue. Single white colonies were picked and viral DNA (bacmid) isolated from the bacteria by standard plasmid purification procedures. Sf9 cells or Sf21 cells were then transfected in 25 cm^2 flasks with the viral DNA using Cellfectin reagent. (Determination of small scale protein expression in Sf9 cells); Virus containing media was collected from the transfected cell culture and used for infection to increase its titer. Virus containing media obtained after two rounds of infection was used for large-scale protein expression. For large-scale protein expression 100 cm^2 round tissue culture plates were seeded with 5×10^7 cells/plate and infected with 1 mL of virus-containing media (approx. 5 MOIs). After 3 days the cells were scraped off the plate and centrifuged at 500 rpm for 5 min. Cell pellets from 10-20, 100 cm^2 plates, were resuspended in 50 mL of ice-cold lysis buffer (25 mMTris-HCl, pH7.5, 2 mMEDTA, 1% NP-40, 1 mM DTT, 1 mMP MSF). The cells were stirred on ice for 15 min and then centrifuged at 5000 rpms for 20 min.
ATP 0.1 μCi). […] ATP into appropriate substrates. […] Subsequently, 40 μL of the reaction mixture were transferred onto Immobilon-PVDF membrane (Millipore, Bedford, Mass., USA) previously soaked for 5 min with methanol, rinsed with water, then soaked for 5 min with 0.5% H3PO4 and mounted on vacuum manifold with disconnected vacuum source. After spotting all samples, vacuum was connected and each well rinsed with 200 μL 0.5% H3PO4. Membranes were removed and washed 4× on a shaker with 1.0% H3PO4, once with ethanol. Membranes were counted after drying at ambient temperature, mounting in Packard TopCount 96-well frame, and addition of 10 μL/well of Microscint™ (Packard). […] One unit of protein kinase activity is defined as 1 nmole of ^33P ATP transferred from [γ^33P] ATP to the substrate protein per minute per mg of protein at 37° C.
In the case of “(9a,10b,11b,13a)-11-[(N-Acetyl-1-deoxymuramoyl)methylamino]-2,3,10,11,12,13-hexahydro-10-methoxy-9-methyl-9,13-epoxy-1H,9H-diindolo[1,2,3-gh:3′,2′,1′-lm]pyrrolo[3,4-j][1,7]benzodiazonin-1-one [149622-63-9]”, the “Flt3 Inhibition (percent inhibition of Flt3 kinase activity)” value is 98%. For `CO[C@@H]1[C@H](N)C[C@H]2O[C@]1(C)n1c3ccccc3c3c4c(c5c6ccccc6n2c5c31)C(=O)NC4` [126221-77-0, (9S,10R,11R,13R)-11-Amino-2,3,10,11,12,13-hexahydro-10-methoxy-9-methyl-9,13-epoxy-1H,9H-diindolo[1,2,3-gh:3′,2′,1′-lm]pyrrolo[3,4-j][1,7]benzodiazonin-1-one] the value was 96%; for `CO[C@@H]1[C@H](N(C)C(=O)OC(C)(C)C)C[C@H]2O[C@]1(C)n1c3ccccc3c3c4c(c5c6ccccc6n2c5c31)C(=O)NC4` [120685-17-8, [9S-(9a,10b,11b,13a)]-(2,3,10,11,12,13-Hexahydro-10-methoxy-9-methyl-1-oxo-9,13-epoxy-1H,9H-diindolo[1,2,3-gh:3′,2′,1′-lm]pyrrolo[3,4-j][1,7]benzodiazonin-11-yl)methyl-carbamic acid, 1,1-dimethylethyl ester], 33%; for “(9a,10b,11b,13a)-11-[[N-Acetyl-6-O-(methylsulfonyl)-a-muramoyl]methylamino]-2,3,10,11,12,13-hexahydro-10-methoxy-9-methyl-9,13-epoxy-1H,9H-diindolo[1,2,3-gh:3′,2′,1′-lm]pyrrolo[3,4-j][1,7]benzodiazonin-1-one [149622-54-8]”, 94%.

Turning to `CNC1CC2OC(C)(C1O)n1c3ccccc3c3c4c(c5c6ccccc6n2c5c31)C(=O)NC4` [239785-03-6, (9R,10S,11S,13S)-2,3,10,11,12,13-Hexahydro-10-hydroxy-9-methyl-11-(methylamino)-,9,13-epoxy-1H,9H-diindolo[1,2,3-gh:3′,2′,1′-lm]pyrrolo[3,4-j][1,7]benzodiazonin-1-one], the “Flt3 Inhibition (percent inhibition of Flt3 kinase activity)” value came to 100%. For “(9a,10b,11b,13a)-11-[[N-Acetyl-6-O-(methylsulfonyl)-1-O-(phenylmethyl)-a-muramoyl]methylamino]-2,3,10,11,12,13-hexahydro-10-methoxy-9-methyl-, 9,13-epoxy-1H,9H-diindolo[1,2,3-gh:3′,2′,1′-lm]pyrrolo[3,4-j][1,7]benzodiazonin-1-one [149622-41-3]” the value was 51%; for “(9a,10b,11b,13a)-11-[(N-Acetyl-6-amino-6-deoxy-b-muramoyl)methylamino]-2,3,10,11,12,13-hexahydro-10-methoxy-9-methyl-9,13-epoxy-1H,9H-diindolo[1,2,3-gh:3′,2′,1′-lm]pyrrolo[3,4-j][1,7]benzodiazonin-1-one [149713-77-9]”, 96%.

`COC1C(N(C)C(=O)c2cnccn2)CC2OC1(C)n1c3ccccc3c3c4c(c5c6ccccc6n2c5c31)C(=O)NC4` (stereo not drawn) [155848-17-2, [9S-(9a,10b,11b,13a)]-N-(2,3,10,11,12,13-Hexahydro-10-methoxy-9-methyl-1-oxo-9,13-epoxy-1H,9H-diindolo[1,2,3-gh:3′,2′,1′-lm]pyrrolo[3,4-g][1,7]benzodiazonin-11-yl)-N-methyl-pyrazinecarboxamide]: the “Flt3 Inhibition (percent inhibition of Flt3 kinase activity)” value is listed as 85%. For “(9a,10b,11b,13a)-11-[[N-Acetyl-4-O-acetyl-6-O-(1-oxooctadecyl)-a-muramoyl]methylamino]-2,3,10,11,12,13-hexahydro-10-methoxy-9-methyl-9,13-epoxy-1H,9H-diindolo[1,2,3-gh:3′,2′,1′-lm]pyrrolo[3,4-j][1,7]benzodiazonin-1-one [149622-64-0]” the value was 27%. `COC1C(N(C)C(=O)c2cccc([N+](=O)[O-])c2)CC2OC1(C)n1c3ccccc3c3c4c(c5c6ccccc6n2c5c31)C(=O)NC4` (stereo not shown) [120685-15-6, (9a,10b,11b,13a)-N-(2,3,10,11,12,13-Hexahydro-10-methoxy-9-methyl-1-oxo-9,13-epoxy-1H,9H-diindolo[1,2,3-gh:3′,2′,1′-lm]pyrrolo[3,4-j][1,7]benzodiazonin-11-yl)-N-methyl-3-nitro-benzamide]: the “Flt3 Inhibition (percent inhibition of Flt3 kinase activity)” value is reported as 74%. Turning to `COC(=O)CN(C)C1CC2OC(C)(C1OC)n1c3ccccc3c3c4c(c5c6ccccc6n2c5c31)C(=O)NC4` (stereo not drawn) [120685-21-4, [9S-(9a,10b,11b,13a)]-N-(2,3,10,11,12,13-Hexahydro-10-methoxy-9-methyl-1-oxo-9,13-epoxy-1H,9H-diindolo[1,2,3-gh:3′,2′,1′-lm]pyrrolo[3,4-j][1,7]benzodiazonin-11-yl)-N-methyl-glycine, methyl ester], the “Flt3 Inhibition (percent inhibition of Flt3 kinase activity)” value is reported as 82%.

For the molecule `COC1C(N(C)C(=O)c2cccc(F)c2)CC2OC1(C)n1c3ccccc3c3c4c(c5c6ccccc6n2c5c31)C(=O)NC4` (stereo not shown) [120685-16-7, (9a,10b,11b,13a)-3-Fluoro-N-(2,3,10,11,12,13-hexahydro-10-methoxy-9-methyl-1-oxo-9,13-epoxy-1H,9H-diindolo[1,2,3-gh:3′,2′,1′-lm]pyrrolo[3,4-j][1,7]benzodiazonin-11-yl)-N-methyl-benzamide], the “Flt3 Inhibition (percent inhibition of Flt3 kinase activity)” value came out at 60%. Take “(9a,10b,11b,13a)-11-[[N-Acetyl-1-O-(phenylmethyl)-a-isomuramoyl]methylamino]-2,3,10,11,12,13-hexahydro-10-methoxy-9-methyl-9,13-epoxy-1H,9H-diindolo[1,2,3-gh:3′,2′,1′-lm]pyrrolo[3,4-j][1,7]benzodiazonin-1-one [149713-64-4]”: the “Flt3 Inhibition (percent inhibition of Flt3 kinase activity)” value is given as 76%.

Consider “(9a,10b,11b,13a)-11-[[N-Acetyl-1-deoxy-6-O-[(4-methylphenyl)sulfonyl]muramoyl]methylamino]-2,3,10,11,12,13-hexahydro-10-methoxy-9-methyl-, 9,13-epoxy-1H,9H-diindolo[1,2,3-gh:3′,2′,1′-lm]pyrrolo[3,4-j][1,7]benzodiazonin-1-one [149622-70-8]”, for which the “Flt3 Inhibition (percent inhibition of Flt3 kinase activity)” value is reported as 67%. For `C=CCNC(=S)N(C)C1CC2OC(C)(C1OC)n1c3ccccc3c3c4c(c5c6ccccc6n2c5c31)C(=O)NC4` (stereo not shown) [120685-39-4, (9a,10b,11b,13a)-N-(2,3,10,11,12,13-Hexahydro-10-methoxy-9-methyl-1-oxo-9,13-epoxy-1H,9H-diindolo[1,2,3-gh:3′,2′,1′-lm]pyrrolo[3,4-j][1,7]benzodiazonin-11-yl)-N-methyl-N′-2-propenyl-thiourea] the value was 93%; for “[9a,10b,11b(S*),13a]-2-(Acetylamino)-2-deoxy-3-O-[1-[[(2,3,10,11,12,13-hexahydro-10-methoxy-9-methyl-1-oxo-9,13-epoxy-1H,9H-diindolo[1,2,3-gh:3′,2′,1′-lm]pyrrolo[3,4-j][1,7]benzodiazonin-11-yl)methylamino]carbonyl]propyl]-a-D-Glucopyranose [149622-60-6]”, 76%.
